Assay results as given in patent publication US4228155A, “Synthetic peptides having pituitary growth hormone releasing activity” (Beckman Instruments, Inc., priority 1979, dated 1980).
Values joined by “and” are separate entries in the source; they are usually repeats but may differ in a detail not shown here. Equal values may be shown once. Where a SMILES comes first, the peptide text is derived from it. [ ]: non-standard residue; d: D form.

System: pituitary
Assay: In vitro growth hormone release study (incubated rat pituitaries, GH radioimmunoassay)
Type: cell-based
Conditions: pituitaries of 20 day old female rats, ΔGH (I3-P2),(I4-P2), ± SEM
Protocol: Female rats of the CD-1 strain were housed in a constant temperature room at 24° C. with 14 hours light and 10 hours darkness. The rats were fed Purina brand rat chow ab libitum.
All studies were started between 0800 and 1000 hours.
Pituitaries were removed from 20 day old female rats. Two pituitaries were incubated at 36° C. in 1 ml of lactated Ringer's solution in 10 ml polytetrafluoroethylene beakers in a Dubnoff Shaker (90 cycles/min.). The pituitaries were incubated a total of 4 hours (P1, P2, I3, and I4). After two successive one hour preincubation periods (P1, P2), the peptide was added to the incubation medium hourly for 2 hours (I3, I4).
This in vitro study was performed in triplicate and a standard radioimmunoassay of growth hormone present in the incubation medium was performed in duplicate. The hormonal activity was calculated as the difference (Δ) of growth hormone (GH) levels between I3, I4 and P2, i.e., (I3 -P2) and (I4 -P2). P values were calculated by Students' t test using six growth hormone values for each value recorded.
The growth hormone radioimmunoassay reagents were distributed by the National Institute of Arthritis and […] (NIAMDD) program. The growth hormone values were calculated in terms of nanograms (ng) of a rat standard with a growth hormone potency of 0.61 units/mg.

CSCC[C@H](NC(=O)[C@H](CCCCN)NC(=O)[C@@H](Cc1ccccc1)NC(=O)[C@@H](Cc1ccccc1)NC(=O)[C@@H](N)Cc1c[nH]c2ccccc12)C(N)=O [H2 N--Trp--D-Phe--D-Phe--Lys--Met--CONH2, H2 N-Trp-D-Phe-D-Phe-Lys-Met-CONH2] (H-W[dF][dF]KM-NH2)
IN VITRO GROWTH HORMONE RELEASE (0.3μg peptide): 24 ± 24 ngΔGH/ml incubation medium | IN VITRO GROWTH HORMONE RELEASE (10μg peptide): 853 ± 138 ngΔGH/ml incubation medium and 440 ± 180 ngΔGH/ml incubation medium
